The Kd is the concentration at which binding is half-saturated.

These results are taken from publication PMC3960879 (Biology, 2013).

Read-outs that look alike come from different tables or passages of the source.

For assay [1], the target named is T1, F17aG receptor-binding domain (Escherichia coli, UniProt Q99003).
T1 construct: variants of the lectin domains with oligolysine (4Lys) tails have been constructed; made in house; host or cells: E. coli (periplasm)
The experiment in a line: biochemical. On the procedure:
(§1) The affinity profiles were determined by surface plasmon resonance (SPR) measurements using a BiaCore 3000 instrument (GE Healthcare). […] The proteins were covalently immobilized on CM5 sensor chips (Biacore AB) to an average density of 2000 RU (resonance units in pg/mm^2). On each chip, one flow cell was coated with a camel single domain antibody for use as a reference cell. The other three flow cells (Fc2, Fc3 and Fc4) were coated with three different F17G variants. Carbohydrate concentrations ranging from 10 µM to 10 mM in running buffer (20 mM Hepes, pH 7.4; 150 mM NaCl; 3 mM EDTA and 0.005% surfactant Tween 20) were incubated for one minute on all flow cells simultaneously, at 25 °C and at a flow rate of 30 µL/min. Complete dissociation of the carbohydrates in running buffer was verified before starting a new binding cycle. All binding cycles were performed in duplicate, including a zero concentration cycle (injection of pure running buffer). All analysis was done using the BIAeval software. In each case the equilibrium resonance signal from the reference cell was subtracted from that of the various F17G flow cells (2-1, 3-1, 4-1). A Langmuir binding isotherm with a 1:1 stoichiometry was fitted to the data, from which the equilibrium dissociation constants, Kd, were obtained.

The target of assay [2] is T2, F17bG receptor-binding domain (Escherichia coli, UniProt Q47200).
T2 construct: variants of the lectin domains with oligolysine (4Lys) tails have been constructed; made in house; host or cells: E. coli (periplasm)
T2 sequence (Q47200 23-199): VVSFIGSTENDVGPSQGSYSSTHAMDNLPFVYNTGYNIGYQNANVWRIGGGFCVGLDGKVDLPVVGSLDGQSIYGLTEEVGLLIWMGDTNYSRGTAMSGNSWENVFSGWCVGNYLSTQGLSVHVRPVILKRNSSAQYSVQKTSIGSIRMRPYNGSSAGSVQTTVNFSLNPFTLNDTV
As to conditions: SPR steady state, 25 °C, pH 7.4; read-out: Affinity range (Kd class), F17bG. As to the method: as §1

Assay [3] has as its target F17fG receptor-binding domain (Escherichia coli, UniProt Q9RH91). The experiment in a line: Surface plasmon resonance steady-state affinity, immobilized F17fG. On the procedure:
as §1
(In general: In SPR one partner is held on a chip, and binding of the other changes the refractive index at the surface.)

The target in assay [4] is F17eG receptor-binding domain. The experiment in a line: Surface plasmon resonance steady-state affinity, immobilized F17eG. As to conditions: SPR steady state, 25 °C, pH 7.4. Further details: species or system Escherichia coli. On the procedure:
as §1

The test system of another assay is FedF lectin domain. The experiment in a line: CFG glycan array version 2 (experiment 399), FedF lectin domain. The assay is classed as binding, Escherichia coli. As to conditions: CFG glycan array experiment 399; FedF 100 μg/mL. An excerpt:
The most highly, triple, sulfated disaccharide (1) is here the best binder: Galβ1,4GlcNAc sulfated at positions 3', 6' and 6 (Table 3). Sulfation of the O6 hydroxyl (2) of GlcNAc is important, as well as N-acetylation on its position 2 (3) because the lactose form has lower affinity. Monosulfation on the non-reducing end galactose (one ion at either 3', 6' or 4') and lack of sulfation at the reducing end GlcNAc each decrease the fluorescence signal dramatically.

In another assay the target is F17aG lectin domain (Escherichia coli, UniProt Q99003). As to conditions: array version 4.1, exp. 2053. An excerpt:
With mammalian printed array version 4.1, a new evaluation parameter was taken into account, namely % CV = 100 × Std. Dev/Mean. The highest and the lowest point from each set of six replicates have been removed so the average is of 4 values rather than 6. This eliminates some of the false hits that contain a single very high or low point. Thus, points with a high % CV should be considered suspect. […] This comparison provides information on binding specificity. The CFG glycan array data are available containing searchable results by means of flex-based data browser tools.
A microarray presenting 264 different glycans (mammalian printed array version 2 from the CFG, experiment 400) was used to evaluate whether the F17G variant lectin domains differ in the range of glycan receptors that they can recognize, thereby establishing strain-dependent tropism. […] The glycan array screening has been repeated for F17aG only on printed array version 4.1 (experiment 2053) (Figure 1).

Where [5] appears, read: SPR steady state, 25 °C, pH 7.4, read-out: Affinity range (Kd class), F17aG.
Where [6] appears, read: SPR steady state, 25 °C, pH 7.4, read-out: Affinity range (Kd class), F17fG.
Setting [7] is: read-out: Affinity range (Kd class), F17eG.
Setting [8] is: SPR steady state, 25 °C, pH 7.4, good fit for at least three related experiments, read-out: dissociation constant Kd, F17aG.
The mark [9] stands for this setting: good fit for at least three related experiments, read-out: dissociation constant Kd, F17eG.

T1 sequence (Q99003 23-199): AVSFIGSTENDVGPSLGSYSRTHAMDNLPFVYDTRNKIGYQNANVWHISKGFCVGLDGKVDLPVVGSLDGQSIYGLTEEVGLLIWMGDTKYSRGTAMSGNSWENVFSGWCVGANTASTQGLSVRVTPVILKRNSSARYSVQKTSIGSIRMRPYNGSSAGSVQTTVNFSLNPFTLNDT
F17fG receptor-binding domain, sequence (Q9RH91 23-198): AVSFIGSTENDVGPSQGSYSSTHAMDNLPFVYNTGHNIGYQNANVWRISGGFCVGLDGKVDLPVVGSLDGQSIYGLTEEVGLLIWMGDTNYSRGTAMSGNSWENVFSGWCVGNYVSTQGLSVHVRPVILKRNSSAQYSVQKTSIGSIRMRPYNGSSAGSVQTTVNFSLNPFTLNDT
F17aG lectin domain, sequence (Q99003 23-199): as the sequence (Q99003 23-199) above

`CC(=O)N[C@H]1C(O)O[C@H](CO)[C@@H](O)[C@@H]1OS(=O)(=O)O` (stereo partly shown) [GlcNAc3SO3^−]: the equilibrium dissociation constant (Kd) is 1 to 10 mM in assay [1] (setting [5]), 1 to 10 mM in assay [2] and above 100 mM in assay [3] (setting [6]).

Regarding `CC(=O)N[C@H]1C(O)O[C@H](COP(=O)(O)O)[C@@H](O)[C@@H]1O` (stereo partly shown) [GlcNAc6PO3^2−], the Kd is above 100 mM in assay [1] (setting [5]), 10 to 100 mM in assay [2] and above 100 mM in assay [3] (setting [6]).

On to `CC(=O)N[C@@H]1[C@@H](O)[C@H](O)[C@@H](COS(=O)(=O)O)O[C@H]1O` [GlcNAc6SO3^−], for which the Kd in assay [1] (setting [5]) is 10 to 100 mM; in assay [3] (setting [6]), above 100 mM; in assay [4] (setting [7]), 1 to 10 mM.

With `CO[C@@H]1O[C@H](CO)[C@H](O)[C@H](O)[C@H]1O[C@@H]1O[C@H](CO)[C@@H](O)[C@H](O)[C@H]1NC(C)=O` [GlcNAcβ1,2Gal, GlcNAc(β1-2)Galβ1OMe], the equilibrium dissociation constant (Kd) is 4.2 mM in assay [1] (setting [8]), 1 to 10 mM in assay [1] (setting [5]), 2 mM in assay [4] (setting [9]) and 1 to 10 mM in assay [4] (setting [7]).

On to `CC(=O)N[C@H]1[C@H](O[C@@H]2[C@@H](OC[C@H]3OC(O)[C@@H](O)[C@@H](O[C@H]4O[C@H](CO)[C@@H](O)[C@H](O)[C@@H]4O[C@@H]4O[C@H](CO)[C@@H](O)[C@H](O)[C@H]4NC(C)=O)[C@@H]3O)O[C@H](CO)[C@@H](O)[C@@H]2O)O[C@H](CO)[C@@H](O)[C@@H]1O` (stereo partly shown) [GlcNAcβ1,2Manα1,6(GlcNAcβ1,2Manα1,3)Man], for which the Kd was 3 mM in assay [1] (setting [8]), 1 to 10 mM in assay [1] (setting [5]), 3 mM in assay [4] (setting [9]) and 1 to 10 mM in assay [4] (setting [7]).

For `CO[C@@H]1O[C@H](CO)[C@H](O)[C@H](O[C@@H]2O[C@H](CO)[C@@H](O)[C@H](O)[C@H]2NC(C)=O)[C@H]1O` [GlcNAcβ1,3Gal, GlcNAc(β1-3)Galβ1OMe], the Kd is 0.66 mM in assay [1] (SPR measurements, text says F17G without variant, read-out: Kd of F17G as stated in the discussion); 0.66 mM in assay [1] (setting [8]); 0.1 to 1 mM in assay [1] (setting [5]); 1 to 10 mM in assay [2]; 0.1 to 1 mM in assay [3] (setting [6]); 0.28 mM in assay [4] (setting [9]).

As for `CO[C@@H]1O[C@H](CO)[C@H](O[C@@H]2O[C@H](CO)[C@@H](O)[C@H](O)[C@H]2NC(C)=O)[C@H](O)[C@H]1O` [GlcNAcβ1,4Gal, GlcNAc(β1-4)Galβ1OMe], the Kd in assay [1] (setting [8]) is 3.3 mM; in assay [1] (setting [5]), 1 to 10 mM; in assay [4] (setting [9]), 2.7 mM; in assay [4] (setting [7]), 1 to 10 mM.

Regarding `CC(=O)N[C@H]1[C@H](O[C@H]2[C@H](O)[C@@H](NC(C)=O)C(O)O[C@@H]2CO)O[C@H](CO)[C@@H](O)[C@@H]1O` (stereo partly shown) [GlcNAcβ1,4GlcNAc], the Kd was 3.3 mM in assay [1] (setting [8]), 1 to 10 mM in assay [1] (setting [5]), 1 to 10 mM in assay [2] and 1 to 10 mM in assay [3] (setting [6]).

In the case of `CO[C@@H]1O[C@H](CO[C@@H]2O[C@H](CO)[C@@H](O)[C@H](O)[C@H]2NC(C)=O)[C@H](O)[C@H](O)[C@H]1O` [GlcNAcβ1,6Gal, GlcNAc(β1-6)Galβ1OMe], the Kd in assay [1] (setting [8]) is 2.8 mM; in assay [1] (setting [5]) it was 1 to 10 mM; in assay [4] (setting [9]) it was 3.8 mM; in assay [4] (setting [7]), 1 to 10 mM.

Consider `CC(=O)N[C@H]1C(O)O[C@H](CO)[C@@H](O[C@@H]2O[C@H](CO)[C@@H](O)[C@H](O)[C@H]2N)[C@@H]1O[C@H](C)C(=O)O` (stereo partly drawn) [GlcNH2-MurNAc, glucosamine β1,4 N-actetylmuramic acid], for which the figures for the Kd in assay [1] (setting [5]), in assay [2] and in assay [3] (setting [6]) were 10 to 100 mM, 10 to 100 mM and above 100 mM, respectively.

`CC(=O)N[C@@H]1C(O)O[C@H](CO)[C@@H](O)[C@@H]1O` (stereo partly shown) [N-acetylmannosamine]: the Kd in assay [1] (setting [5]) was in the range of 1 to 10 mM; in assay [2] it was 10 to 100 mM; in assay [3] (setting [6]), 1 to 10 mM.

For the molecule `CC(=O)N[C@H]1[C@H]([C@H](O)[C@H](O)CO)OC(O)(C(=O)O)C[C@@H]1O` (stereo partly shown) [N-acetylneuraminic acid], the dissociation constant (Kd) is above 100 mM in assay [1] (Affinity range (Kd class), F17aG, SPR steady state, 25 °C, pH 7.4) and above 100 mM in assay [3].

As for `O=S(=O)(O)OCC1OC(O)C(O)C(O)C1OC1OC(CO)C(O)C(OS(=O)(=O)O)C1O` (stereo not shown) [[3OSO3]Galβ1,4[6OSO3]Glc], in the assay with FedF lectin domain, the “RFU (averaged Relative Fluorescence Units for the six replicates), FedF lectin domain” value is 4,073 RFU.

`CC(=O)N[C@H]1C(O)O[C@H](COS(=O)(=O)O)[C@@H](O[C@@H]2O[C@H](COS(=O)(=O)O)[C@H](O)[C@H](OS(=O)(=O)O)[C@H]2O)[C@@H]1O` (stereo partly shown) [[3OSO3][6OSO3]Galβ1,4[6OSO3]GlcNAc]: the “RFU (averaged Relative Fluorescence Units for the six replicates), FedF lectin domain” value with FedF lectin domain was 10,388 RFU.

Take `CC(=O)NC1C(O)OC(CO)C(OC2OC(COS(=O)(=O)O)C(OS(=O)(=O)O)C(O)C2O)C1O` (stereo not shown) [[4OSO3][6OSO3]Galβ1,4GlcNAc]: the “RFU (averaged Relative Fluorescence Units for the six replicates), FedF lectin domain” value with FedF lectin domain is reported as 4,568 RFU.

Turning to `O=S(=O)(O)OC[C@H]1O[C@@H](O[C@H]2[C@H](O)[C@@H](O)C(O)O[C@@H]2COS(=O)(=O)O)[C@H](O)[C@@H](O)[C@H]1O` (stereo partly shown) [[6OSO3]Galβ1,4[6OSO3]Glc], in the assay on FedF lectin domain, the “RFU (averaged Relative Fluorescence Units for the six replicates), FedF lectin domain” value is listed as 5,405 RFU.

With `CC(=O)N[C@H]1[C@H](Oc2ccc([N+](=O)[O-])cc2)O[C@H](CO)[C@@H](O)[C@@H]1O` [pNP-GlcNAc, paranitrophenyl β-GlcNAc], the Kd was 0.1 to 1 mM in assay [1] (setting [5]), 10 to 100 mM in assay [2] and 1 to 10 mM in assay [3] (setting [6]).

Consider Galβ1,6GlcNAc, for which the dissociation constant Kd was 10 to 100 mM in assay [3] (setting [6]) and 1 to 10 mM in assay [4] (setting [7]).

As to HOOC(CH3)CH3-3-O-GlcNAcβ1,4GlcNAcβ-Sp10, the “Rank among binders on CFG array, F17aG” value at F17aG lectin domain is “highest binding”.

For Neu5Acα2,3Galβ1,4GlcNAcβ1,2 Man, the Kd in assay [4] (setting [7]) is 10 to 100 mM.

[3OSO3][6OSO3]Galβ1,4GlcNAc: the “RFU (averaged Relative Fluorescence Units for the six replicates), FedF lectin domain” value with FedF lectin domain is recorded as 4,733 RFU.
